Experimental data taken from patent publication US20260263424A1, “Formulations of 2-Arylbenzimidazole Compounds” (Tranquis Therapeutics, Inc., priority 2022, published 2026).
Read-outs that look alike come from different tables or passages of the source.

Assays:
[1] = test system: murine models of neurodegenerative diseases, including Parkinson's disease, Alzheimer's disease, and amyotrophic lateral sclerosis (ALS); settings: administered orally at 25 mg/kg; cited from earlier work
[2] = Single ascending dose (SAD) phase 1 trial, plasma pharmacokinetics of MC, SDD and HME formulations; settings: for Frel Cmax/D (relative bioavailability, geometric mean): dose normalized comparison to Regimen C: 540 mg compound 1 MC formulation; for AUC(0-last) (geometric mean): fasted, plasma
[3] = Multiple dose phase 1 trial, plasma pharmacokinetics of compound 1 SDD formulation QD for 7 days; settings: for AR AUC (accumulation ratio based on AUC(0-tau)) / AR Cmax (accumulation ratio): Day 7, plasma
[4] = WO 2021/262617; cited from earlier work
[5] = test system: Ppargc1α (PGC-1α) expression; settings: Zhang et al., Diabetes 62:1297-1307 (2013); cited from earlier work
[6] = cited from earlier work
[7] = human, in vivo
[8] = male, human, in vivo, 120 mg, 7 days
[9] = Regimen I: 120 mg compound 1 SDD formulation QD, fasted
[10] = Regimen J: 90 mg compound 1 SDD formulation QD, fed
[11] = Regimen K: 300 mg compound 1 SDD formulation QD, fed

## CC(C)(C)c1ccc(-c2nc3ccccc3[nH]2)cc1 [Compound 1, 2-(4-tert-butylphenyl)-1H-benzimidazole]
[1]
  disease severity: reduce disease severity
  myeloid-mediated inflammation: suppress myeloid-mediated inflammation
[2]; MC formulation, single doses of 60 and 180 mg compound 1
  dose proportionality of Cmax, AUC(0-24) and AUC(0-inf): slightly sub-proportionally
[2]; Regimen D 180 mg compound 1 SDD formulation
  Frel Cmax/D (relative bioavailability, geometric mean): 218%
[2]; Regimen D: single oral 180 mg compound 1 SDD formulation
  AUC(0-last) (geometric mean): 611 ng·h/mL
[2]; Regimen E 180 mg compound 1 HME formulation, comparison to Regimen D 180 mg compound 1 SDD formulation
  Frel Cmax (relative bioavailability, geometric mean): 56.6%
[2]; Regimen E 180 mg compound 1 HME formulation
  Frel Cmax/D (relative bioavailability, geometric mean): 124%
[2]; Regimen E: single oral 180 mg compound 1 HME formulation
  AUC(0-last) (geometric mean): 360 ng·h/mL
[3]; [9]
  AR AUC (accumulation ratio based on AUC(0-tau)): 1.58
  AR Cmax (accumulation ratio): 1.59
[3]; [10]
  AR AUC (accumulation ratio based on AUC(0-tau)): 1.24
  AR Cmax (accumulation ratio): 1.03
[3]; Regimen J: 90 mg compound 1 SDD formulation, fed, Day 1
  maximum individual AUC(0-tau) as share of the AUC(0-tau) exposure limit: 10.9%
[3]; [11]
  AR AUC (accumulation ratio based on AUC(0-tau)): 1.66
  AR Cmax (accumulation ratio): 1.74
[4]
  treating systemic immune activation: effective
[5]
  effect on Ppargc1α (PGC-1α) expression: activator
[6]
  solubility under aqueous conditions: highly insoluble

## CC(C)(C)c1ccc(-c2nc3cc(O)ccc3[nH]2)cc1 [Compound 2, 2-(4-(tert-butyl)phenyl)-1H-benzo[d]imidazol-5-ol]
[7]; 180 mg
  dose proportionality of Cmax, AUC(0-24) and AUC(0-inf): proportionally
[7]; male, 180 mg
  Frel Cmax (relative bioavailability, geometric mean): 64.9%
[7]; male, po, 180 mg
  T1/2 (geometric mean): 9.17 h
  Tmax (median): 2 h
[7]; male, po, 270 mg
  Cmax (geometric mean): 621 ng/mL
  Tmax (median): 2 h
[8]
  AR AUC (accumulation ratio based on AUC(0-tau)): 1.46
